Test results reported in US10948480B2, “Immunity to folate receptors” (priority 2006, dated 2021).
Where “and” joins values, the source holds several entries; their conditions need not be identical. Identical values can stand only once.

Tests used:
PBMCs (T cells) = assay: 10-day IFN-γ ELIspot for low-frequency T cells; format: cell-based, human; settings: for Healthy Donor Proportion (%) responding: healthy donors; for Healthy Donor Proportion (%) responding / Patients Proportion (%) responding: 10 μg/mL polypeptide, positive = p<0.05 vs no antigen and >1:100,000; for Patients Proportion (%) responding: breast and ovarian cancer patients
Protocol: An equal volume of Hank's balanced salt solution (HBSS) was added to the blood samples. Twenty-five mL of diluted blood was overlaid onto 15 mL of Ficoll-Paque in a 50 mL conical test tube centrifuged at 374×g for 35 minutes at room temperature. Following centrifugation, the buffy coats were centrifuged (12 minutes, 216×g). The cell pellets were washed and resuspended in freezing media (RPMI supplemented with 12.5% HSA, penicillin, streptomycin, and 2 mM glutamine). Cells were adjusted to 20×10^6/mL cells, and an equal volume of cold 12.5% HSA RPMI containing 25% DMSO (Sigma D2650) was added. Cells were aliquoted and transferred to a −80° C. freezer. After overnight incubation, the vials were transferred to liquid nitrogen.
For in vitro assay, each vial of cells was thawed, and the contents were transferred to a test tube containing 12 mL of cell culture media. Following centrifugation, the cells were resuspended in 2-3 mL of medium, and viability was determined by dye exclusion. The mean number of PBMC purified from the blood of donors was 1.6±0.07×10^6 cells/mL of whole blood for healthy donors and 1.0±0.07×10^6/mL for cancer patients (p<0.0001). This cryopreservation and thawing procedure was optimized for recovery of antigen-specific T cell function (Disis et al., J. Immunol. Methods, 308(1-2):13-8 (2006)).
A 10-day ELIspot for detecting low-frequency T cells was used to determine reactivity to the FRα-derived polypeptides (Table 1). ELIspots were carried out in groups of two donors (two healthy donors, one healthy donor/one cancer patient, or two cancer patients). The assay was carried out as described elsewhere (Knutson et al., J. Clin. Invest., 107:477-84 (2001)). On day 1, 2.5×10^5 PBMCs/well were plated into 96-well plates in 3-well replicates in 200 μL of RPMI-1640 containing L-glutamine, penicillin, streptomycin, and 10% fetal calf serum (T-cell medium) in the presence or absence of 10 μg/mL polypeptide antigen. The cells were incubated at 37° C. and IL-2 (Zeptometric, Inc., Buffalo, N.Y.) was added to 10 U/mL on day 5. On day 8, 2.5×10^5/well irradiated autologous PBMCs and 10 μg/mL antigens were added. On day 9, the cells were transferred to an anti-IFN-γ-coated nitrocellulose (NC)-plate (Millipore Corporation, Bedford, Mass.). The NC-plate was incubated (37° C.) for a further 20-24 hours followed by washing three times using PBS containing 0.05% Tween-20. The plate was then incubated for 2.5 hours at RT in PBS with 5 μg/mL biotinylated anti-IFN-γ Ab, washed in PBS, and further incubated with 100 μL/well avidin-horseradish peroxidase (HRP, Vector Laboratories, Burlingame, Calif.)) for 2 hours at room temperature. After three washes in PBS, the plate was incubated with 100 μL/well HRP-colorimetric substrate (Vector Laboratories) for 20-30 minutes, rinsed with cool tap water, and allowed to dry completely. The nitrocellulose plates were read on an AID ELIspot reader (Cell Technology, Inc., Columbia, Md.; reader software v.3.1.1.). […] A 17-amino acid polypeptide (KISQAVHAAHAEINEAG; SEQ ID NO: 1) derived from chicken egg ovalbumin, produced in the same fashion as the FRα polypeptides, was used as a control polypeptide. […] The anti-IFN-γ and biotinylated anti-IFN-γ antibody pair were obtained from Mabtech (Sweden).
The T cell magnitude for each donor was summed across all 14 polypeptides which, along with the response multiplicity, was compared with age using regression. Student's t test was used for means unless the data were not normally distributed, in which case Mann-Whitney test was used. Fisher's Exact Test was used for comparing proportions. A proportion was considered elevated, relative to other polypeptides, if that proportion was statistically elevated relative to the mean proportion, 8.7%, which is the ratio of the total number of significant (p<0.05, two-tailed t test) polypeptide-specific responses over the total number of donors. […]

[1] = test system: antibodies in diluted serums; format: binding, human
[2] = test system: PBMC (CD4 and CD8 T cells); assay: IFN-γ cytokine flow cytometry; format: cell-based, human; settings: PBMC from three patients that had responded to FR56
Protocol: PBMC were cultured with peptide (10 μg/mL) for seven days. IL-2 (20 U/mL) were added on Day 3. After seven days, the cells were distributed into a 96-well plate with fresh irradiated autologous PBMC. Either medium alone or medium supplemented with PHA-L (20 μg/well) or recall polypeptide (10 μg/well) was added to the appropriate wells for 29 hours. Golgi-Stop was added for the last five hours followed by washing in PBS-0.5% BSA. The cells were resuspended in the same buffer containing anti-CD4-FITC and anti-CD8-APC for 30 minutes, followed by washes and fixing. The cells were permeabilized alone or with unconjugated anti-human IFN-γ (adsorption control) followed by washing and incubation with anti-human anti-IFN-γ-APC for 30 minutes. The cells were washed, fixed, and analyzed using a BD Biosciences FACscan flow cytometer and CellQuest Pro Software (version 4.0.2., BD Biosciences). A response to antigen was considered as positive if there was at least a 50% increase in IFN-γ[…] cells, and it was blocked by the adsorption control.

| Substance | Healthy Donor Proportion (%) responding (PBMCs (T cells)) [%] | Patients Proportion (%) responding (PBMCs (T cells)) [%] | also measured |
| --- | --- | --- | --- |
| LGPWIQQVDQSWRKERV (listed as Homo sapiens) [FR113] | 0 | – | – |
| WHKGWNWTSGFNKCAVGA (listed as Homo sapiens) [FR156] | 17 | 23 | – |
| VDQSWRKERVLNVPL (listed as Homo sapiens) [FR120] | 11 | 13 | – |
| VARFYAAAMSGAGPWA (listed as Homo sapiens) [FR225] | 22 | 7 | – |
| tetanus toxin [TT] | – | – | Antibody responses [1]: 30 ± 4 µg/mL and 27 ± 4 µg/mL |
| KISQAVHAAHAEINEAG (listed as Gallus gallus) [ovalbumin-derived control polypeptide, reference compound] | – | – | responses in patients vs healthy donors (PBMCs (T cells); comparison of the two populations (FIG. 3A)): not different |
| DCEQWWEDCRTSYTCK (listed as Homo sapiens) [FR138] | 22 | 30 | – |
| KDVSYLYRFNWNHCGEMA (listed as Homo sapiens) [FR76] | 11 | 13 | – |
| LLVWVAVVGEAQTRI (listed as Homo sapiens) [FR12] | 6 | 7 | – |
| CKSNWHKGWNWTSGFN (listed as Homo sapiens) [FR152] | 6 | 23 | – |
| PWAAWPFLLSLALMLLWL (listed as Homo sapiens) [FR238] | – | 23 | – |
| QCRPWRKNACCSTNT (listed as Homo sapiens) [FR56] | 6 | – | ELIspot response (PBMCs (T cells); healthy donor 15, no antigen control 5±1): 3±1 spots/well; recognition by ovarian vs breast cancer patients (PBMCs (T cells); p=0.05): recognized more often; ELIspot response (PBMCs (T cells); patient 37, mean±s.e.m., n=3, no antigen 26±2): 183±17 spots/well; patients with CD4 T cell response [2]: All three; patients with CD8 T cell response [2]: two of three |
| ACKRHFIQDTCLYECS (listed as Homo sapiens) [FR95] | 6 | 23 | – |
| MTTQLLLLLVWVAVVGEAQ (listed as Homo sapiens) [FR5] | 6 | 17 | – |
| RTELLNVCMNAKHHKEK (listed as Homo sapiens) [FR30] | 6 | – | – |
| RTSYTCKSNWHKGWNWT (listed as Homo sapiens) [FR147] | 22 | 40 | – |
